| SMILES | melting point |
| --- | --- |
| N#Cc1cnc(N)nc1-c1ccccc1 | 147 °C |
| CCOC(=O)c1cc([N+](=O)[O-])cn1Cc1ccccc1 | 73 °C |
| Nc1ncc(CCCCCc2cccc3ccccc23)c(N)n1 | 128 to 133 °C |
| Fc1cc2c(Nc3ccc(OCc4ccccn4)c(Cl)c3)ncnc2cn1 | 216 to 219 °C |
| Cn1cc(C2=C(c3ccncc3)C(=O)NC2=O)c2ccccc21 | 332 to 334 °C |
| O=[N+]([O-])c1ccc(-c2cc3c(Cl)ncnc3[nH]2)cc1 | > 280 °C |
| CC1N=C(c2ccccc2F)c2cc(C(C)N)ccc2N(C)C1=O (stereo unspecified) | 48 to 50 °C |
| O=S(=O)(NCC(O)(Cn1cncn1)c1ccc(Cl)cc1Cl)c1cccs1 (stereo unspecified) | 169 to 180 °C |
| OCc1cc(F)nc(F)c1 | 66 to 67 °C |
| Nc1ncnc2c1c(-c1ccc(NS(=O)(=O)c3ccccc3)c(O)c1)cn2C1CCCC1 | 265 to 267 °C |
| CC1(C)Cc2cc(Br)cc(O)c2O1 | 70 °C |
| O=C(NNC(=O)c1cccc([N+](=O)[O-])c1)c1cccc([N+](=O)[O-])c1 | 245 °C |
| O=C(Nc1ccccc1)Nc1ccc(Cl)cc1C(=O)c1ccccc1 | 145 to 147 °C |
| Cc1cc(N2CCN(c3ccccc3)CC2)c2c(N)c(C(N)=O)sc2n1 | 247 to 250 °C |
| CN1C(=O)C2(COc3cc4c(cc32)OCCO4)c2c(NC(=O)c3ccccc3)cccc21 (stereo unspecified) | 192 to 194 °C |
| Cn1ccnc1S(=O)(=O)C(C)(Cc1ccc(-c2ccccc2)cc1)C(=O)NO (stereo unspecified) | 112 °C |
| COc1ccc(N(C)CC(=O)O)c(C(=O)O)c1 | 196 °C |
| CC12CCC3C(CCC4=CC(=O)CCC43C=O)C1CCC2=O (stereo unspecified) | 126 to 129 °C |
| Cc1oc(-c2ccccc2)nc1CCC#N | 63 to 64 °C |
| N#C[C@@H]1C[C@H](F)CN1C(=O)CCl | 97 to 100 °C |
| CCn1cc(C(=O)O)c(=O)c2ccc(-n3cccc3)nc21 | 230 to 232 °C |
| CC(=O)c1cc(Cn2ccnc2)ccc1O | 106 to 107 °C |
| COc1cccc2oc(-c3ccccc3Cl)cc(=O)c12 | 148 to 149 °C |

Second part, the molecule after the results:

| melting point | SMILES |
| --- | --- |
| 196 °C | Clc1ccc(-c2nnc(NCCN3CCCCC3)c(Cc3ccccc3)n2)cc1 |
| 180 to 182 °C | CCC(O)CN1CCC2(CC1)CSC1=C(O2)c2ccccc2C(=O)C1=O (stereo unspecified) |
| 289 °C | COc1ccc(-c2[nH]nc3c2C(=O)c2c(NC(=O)C4CC4)cccc2-3)cc1 |
| 154 °C | CC(C)(C)C(=O)C(Cl)C(=O)Nc1ccccc1 (stereo unspecified) |
| 285 to 290 °C | CCCn1c(=O)c2[nH]c(-c3cc(C)n(CC(=O)Nc4ccc(OC)c(OC)c4)n3)nc2n(CCC)c1=O |
| > 200 °C | CC(C)(C)OC(=O)NC(=N)c1ccc(C(=O)O)cc1 |
| 140 to 141 °C | CCOC(=O)C(=CNc1ccc(F)c(-c2ccncc2)n1)C(=O)OCC |
| 46 to 47 °C | Cc1cccc(Cl)c1OC1CN(C(=O)N(C)C)C1 |
| 197 °C | C[C@H]1Cn2c(=S)[nH]c3cccc(c32)CN1CC1CC1 |
| 206 to 208 °C | CCCSc1cc2c(c3c1OC(C)(C)C3)C(c1cccc(C(=O)O)c1)=NC(C)(C)C2 |
| 235 to 239 °C | CCS(=O)(=O)N1CCC(NC(=O)Nc2ccc(OC(F)(F)F)cc2)CC1 |
| 87 to 88 °C | CCC(COC)(OC)c1cncc(O)c1 (stereo unspecified) |
| 138 °C | CC(=O)Nc1cc2c(cc1Br)CCC2 |
| 157 to 159 °C | COc1ccc2c(c1)c1c(n2C(=O)c2ccccc2)CCCC1C(=O)O (stereo unspecified) |
| 100 °C | CC(C)c1cn2ccccc2c1Sc1ccc(O)cc1 |
| 172 to 173 °C | CCC(C=CC(C)C1CCC2C3CC=C4CC(OC(=O)NCCO)CCC4(C)C3CCC12C)C(C)C (stereo unspecified) |
| 186 to 187 °C | Cc1ncsc1CCOc1ccc(NC(=O)c2cc(F)cc(N3CCOCC3)c2)c2ccccc12 |
| 225 °C | O=C(NCc1ccc(F)cc1)c1nc2n(c(=O)c1O)CCN2Cc1ccccc1 |

Reference: a melting point compilation (Tetko et al.; mined from patent text by program, amines drawn as free bases though some values may be those of a salt)
